Experimental data reported in patent US20140314697A1, “Method for Inhibiting Inflammation and Reducing Melanophilin Expression with Glycine Derivatives And the Composition Thereof” (CORUM INC., priority 2013, published 2014).

Assays:
[1] = tested on: Human IL-8 secretion, Normal Human Epidermal Keratinocytes (NHEK); assay: Human IL-8 production in UVB-irradiated NHEK (ELISA); format: cell-based; settings: for Human IL-8 Content, Average: 40 mJ/cm^2 UVB; for Human IL-8 Content, Average / Human IL-8 Content, Entry 1 / Human IL-8 Content, Entry 2 / Human IL-8 Content, Entry 3: Positive Control 100%; for Human IL-8 Content, Entry 1: passage 2 + 2, 40 mJ/cm^2 UVB; for Human IL-8 Content, Entry 2 / Human IL-8 Content, Entry 3: passage 2 + 3, 40 mJ/cm^2 UVB
Procedure: Normal Human Epidermal Keratinocytes (NHEK) (PromoCell No. C-12008);
Positive Control: 40 mJ/cm^2 UVB,
Negative Control: No UVB irradiation;
a. Rinse the confluent NHEK cells with sterile D-PBS then trypsinize all cells and perform cell counting.
b. Dilute the cell density to 4˜8E+04/mL and seed 0.5 mL cell liquid (equals to 2˜4E+04 cells) each well in 24 well plate.
c. Incubate NHEK cells at 37° C., 5% CO2 until subconfluence.
d. Prepared dosing solution of testing material in Complete Medium: 0.4%, 0.2%, 0.1%, 0.05%.
e. Rinse the NHEK cells with sterile D-PBS and discard rinse buffer. Add 400 μL of controls and testing materials in different concentrations into NHEK cells in 24 well plates.
f. Pre-incubate NHEK cells with testing material at 37° C., 5% CO2 for about 6 hours.
g. After pre-incubating for about 6 hours, wash the NHEK cells with sterile D-PBS for twice then add […] sterile D-PBS for UVB irradiation.
h. UVB intensity is about 2300 μW/cm^2 and UVB energy is about 40 mJ/cm^2.
i. After UVB irradiation, discard sterile D-PBS and wash again. Add 400 μL of the same dosing solution in to each wells.
j. Post-incubate at 37° C., 5% CO2 for about 18 hours.
k. After post-incubating for 18 hours, collect the supernatant of controls and testing materials.
l. Determine the IL-6/IL-8 content of the supernatant by R&D ELISA kit as mentioned previously.
Normal Human Epidermal Keratinocytes (NHEK) were treated by the above-mentioned glycine derivatives for evaluating their anti-inflammatory effect on keratinocytes in this example.

NHEK cells = assay: Cell viability on NHEK; format: cell-based, Human; settings: for cell viability on NHEK, Average / cell viability on NHEK, Entry 1 / cell viability on NHEK, Entry 2 / cell viability on NHEK, Entry 3: 40 mJ/cm^2 UVB, Positive Control 100%; for cell viability on NHEK, Entry 1: passage 2 + 2; for cell viability on NHEK, Entry 2 / cell viability on NHEK, Entry 3: passage 2 + 3
Procedure: (§1) 4.4. Cell Viability is Tested by Neutral Red Uptake Experience or MTT Assay.

Raw264.7 cells = assay: Cell viability on Raw264.7; format: cell-based, Murine; settings: for cell viability on Raw264.7, Entry 2: passage N + 5; for cell viability on Raw264.7, Entry 2 / cell viability on Raw264.7, Entry 3 / cell viability on Raw264.7, Entry 1 / cell viability on Raw264.7, Average: with LPS & IFN-r, Positive Control 100%; for cell viability on Raw264.7, Entry 3: passage N + 6; for cell viability on Raw264.7, Entry 1: passage N + 7
Procedure: as §1

[2] = tested on: Mlph (melanophilin) protein in B16-F10 cells; assay: Reduction of melanophilin expression on translational level (western blot); format: cell-based, Murine; settings: B16-F10 w/FSK; for Mlph protein expression level, Average / Mlph protein expression level, Entry 1 / Mlph protein expression level, Entry 2 / Mlph protein expression level, Entry 3: about 48 hours, Positive Control 100%
Procedure: Murine melanoma cell line B16-F10 (BCRC No. 60031)
Complete Medium (as negative control): DMEM with 10% Fetal Bovine Serum
Testing Medium (as positive control): 20 μM forskolin (FSK) in Complete Medium
a. Rinse the confluent B16-F10 cells with sterile D-PBS then trypsinize all cells and perform cell counting.
b. Seeding 2.5E+05 cells per 6-cm dish.
c. Incubate B16F10 cells at 37° C., 5% CO2 for about 24 hours.
d. Prepared 0.5%/0.25%/0.125% testing material in Testing Medium.
e. Discard the medium and add 3 mL controls and testing material into B16-F10 cells in 6-cm dish.
f. Incubate B16-F10 cells at 37° C., 5% CO2 for about 48 hour.
g. After incubating for about 48 hours, discard the supernatant and wash the B16-F10 cells with sterile D-PBS.
h. Mlph protein expression is measured by western blot. Western blot conditions: • Loading protein amount: 40 μg/well • Protein transfer by Semi-dry Transfer Apparatus • Immunoblot with Primary Ab (1:250 dilution) at 4° C. overnight • Incubate with secondary Ab (1:5000 dilution) at room temperature for 1 hour • Detection was performed with the ECL system • Relative quantification of protein expression was measured by IMAGEJ free software). β-actin was used as the internal control for normalization • Data Analysis: […]

CC(=O)NCC(=O)NCCC(=O)O [Ac-Gly-β-Ala, 3-(2-acetylamino-acetylamino)-propionic acid]
IL-8 production, dose dependence ([1]; 0.05%-0.4%, UVB): inhibited IL-8 production in dose-dependent manner | Human IL-8 Content, Average ([1]; Table 7, 0.05%): 97% | Human IL-8 Content, Entry 1 ([1]; Table 7, 0.05%): 107% | Human IL-8 Content, Entry 2 ([1]; Table 7, 0.05%): 81% | Human IL-8 Content, Entry 3 ([1]; Table 7, 0.05%): 103% | Human IL-8 Content, Average ([1]; Table 7, 0.10%): 80% | Human IL-8 Content, Entry 1 ([1]; Table 7, 0.10%): 76% | Human IL-8 Content, Entry 2 ([1]; Table 7, 0.10%): 70% | Human IL-8 Content, Entry 3 ([1]; Table 7, 0.10%): 93% | Human IL-8 Content, Average ([1]; Table 7, 0.20%): 69% | Human IL-8 Content, Entry 1 ([1]; Table 7, 0.20%): 77% | Human IL-8 Content, Entry 2 ([1]; Table 7, 0.20%): 72% | Human IL-8 Content, Entry 3 ([1]; Table 7, 0.20%): 59% | Human IL-8 Content, Entry 1 ([1]; Table 7, 0.40%): 10% | Human IL-8 Content, Entry 2 ([1]; Table 7, 0.40%): 5% | Human IL-8 Content, Entry 3 ([1]; Table 7, 0.40%): 13% | cell viability on NHEK, Average (NHEK cells; 0.01%): 80% | cell viability on NHEK, Entry 1 (NHEK cells; 0.01%): 80% | cell viability on NHEK, Entry 2 (NHEK cells; 0.01%): 82% | cell viability on NHEK, Entry 3 (NHEK cells; 0.01%): 76% | cell viability on NHEK, Average (NHEK cells; 0.03%): 84% | cell viability on NHEK, Entry 1 (NHEK cells; 0.03%): 88% | cell viability on NHEK, Entry 2 (NHEK cells; 0.03%): 80% | cell viability on NHEK, Entry 3 (NHEK cells; 0.03%): 83% | cell viability on NHEK, Average (NHEK cells; 0.05%): 93% | cell viability on NHEK, Entry 1 (NHEK cells; 0.05%): 93% | cell viability on NHEK, Entry 2 (NHEK cells; 0.05%): 90% | cell viability on NHEK, Entry 3 (NHEK cells; 0.05%): 95% | cell viability on NHEK, Average (NHEK cells; 0.10%): 108% | cell viability on NHEK, Entry 1 (NHEK cells; 0.10%): 109% | cell viability on NHEK, Entry 2 (NHEK cells; 0.10%): 103% | cell viability on NHEK, Entry 3 (NHEK cells; 0.10%): 110% | cell viability on NHEK, Average (NHEK cells; 0.20%): 109% | cell viability on NHEK, Entry 1 (NHEK cells; 0.20%): 106% | cell viability on NHEK, Entry 2 (NHEK cells; 0.20%): 107% | cell viability on NHEK, Entry 3 (NHEK cells; 0.20%): 113% | cell viability on NHEK, Average (NHEK cells; 0.40%): 93% | cell viability on NHEK, Entry 1 (NHEK cells; 0.40%): 106% | cell viability on NHEK, Entry 2 (NHEK cells; 0.40%): 95% | cell viability on NHEK, Entry 3 (NHEK cells; 0.40%): 79% | Cell viability (NHEK cells; NHEK, all of dosing solution): higher than 80% | cell viability on Raw264.7, Entry 2 (Raw264.7 cells; 0.05%): 101% | cell viability on Raw264.7, Entry 3 (Raw264.7 cells; 0.05%): 89% | cell viability on Raw264.7, Entry 1 (Raw264.7 cells; 0.05%): 101% | cell viability on Raw264.7, Average (Raw264.7 cells; 0.05%): 96% | cell viability on Raw264.7, Entry 2 (Raw264.7 cells; 0.10%): 104% | cell viability on Raw264.7, Entry 3 (Raw264.7 cells; 0.10%): 87% | cell viability on Raw264.7, Entry 1 (Raw264.7 cells; 0.10%): 95% | cell viability on Raw264.7, Average (Raw264.7 cells; 0.10%): 97% | cell viability on Raw264.7, Entry 2 (Raw264.7 cells; 0.20%): 98% | cell viability on Raw264.7, Entry 3 (Raw264.7 cells; 0.20%): 91% | cell viability on Raw264.7, Entry 1 (Raw264.7 cells; 0.20%): 90% | cell viability on Raw264.7, Average (Raw264.7 cells; 0.20%): 100% | cell viability on Raw264.7, Entry 2 (Raw264.7 cells; 0.40%): 77% | cell viability on Raw264.7, Entry 3 (Raw264.7 cells; 0.40%): 89% | cell viability on Raw264.7, Entry 1 (Raw264.7 cells; 0.40%): 86% | cell viability on Raw264.7, Average (Raw264.7 cells; 0.40%): 88% | Cell viability (Raw264.7 cells; Raw264.7, all of dosing solution (0.05-0.4%)): higher than 85% | Mlph protein expression level, Average ([2]; 0.125%): 71.3% | Mlph protein expression level, Entry 1 ([2]; 0.125%): 66.8% | Mlph protein expression level, Entry 2 ([2]; 0.125%): 65.7% | Mlph protein expression level, Entry 3 ([2]; 0.125%): 81.2% | Mlph protein expression level, Average ([2]; 0.25%): 62.0% | Mlph protein expression level, Entry 1 ([2]; 0.25%): 49.4% | Mlph protein expression level, Entry 2 ([2]; 0.25%): 12.8% | Mlph protein expression level, Entry 3 ([2]; 0.25%): 123.8% | Mlph protein expression level, Average ([2]; 0.5%): 24.3% | Mlph protein expression level, Entry 1 ([2]; 0.5%): 36.5% | Mlph protein expression level, Entry 2 ([2]; 0.5%): 10.6% | Mlph protein expression level, Entry 3 ([2]; 0.5%): 25.8% | effect on Mlph in translational (protein) level [2]: inhibitory effect
